For data set [1] the following is noted: rat. An excerpt:
The conclusive measure of bioavailability is to measure the drug blood levels (or levels in some other body fluid) after administration to human test subjects.
See Rabau M Y, Baratz M, Rozen P, “Na2 ethylenediaminetetraacetic acid retention enema in dogs. Biochemical and histological response”.

For data set [2] the following is noted: aqueous composition containing MBK, pH 7.0 and pH 9.6, after 5 hours. Here is the method:
Cells in the digestive track, such as CACO-2 cells are typically used to model absorption in the small intestine. CACO-2 cells, developed by the Sloan-Kettering Institute from human epithelial colorectal adenocarcinoma cells, are widely used to predict drug absorption. […] permeability assay (PAMPA) uses an artificial cell membrane to model drug permeability. In either test, the drug is dissolved in an aqueous solution mimicking the target gastric fluid. The fluid is contacted with the membrane, and the passage of the drug through the membrane over a period of time is used to assess permeability.
PAMPA measures how quickly the drug can exit a water-solvated environment and pass through a cell membrane. Since most drugs are hydrophobic, it is expected that there will be significant absorption by the cells lining the digestive tract.

For data set [3] the following is noted: dogs, aqueous solution, rectal; cited from earlier work.
[4] abbreviates: Group C, rectal suppository with MBK excipient, mean.

The text below walks through data of patent US9205070B2, “Chelation suppository for improved drug delivery” (APPLIED BIORESEARCH, INC., priority 2013, dated 2015).

Read-outs that look alike come from different tables or passages of the source.

The AUC is concentration integrated over time. Broadly, the Cmax is the maximum level reached in the sampled fluid or tissue. By Tmax is commonly meant the time from dosing to the highest level. As for `O=C([O-])CN(CCN(CC(=O)[O-])CC(=O)[O-])CC(=O)[O-].[Ca+2].[Na+].[Na+]` [CaNa2EDTA, calcium disodium ethylenediaminetetraacetate], in data set [1] (Group B, intravenous, mean), the area under the curve (AUC) was 1860 ng·h/mL, the “AUC Inf” value turned out to be 1910 ng·h/mL, the Cmax worked out at 2070 ng/mL and the Halflife is 90 min. Further, the time of peak concentration (Tmax) in data set [1] (Group B, intravenous, mean) stood at 4.98 min. Also, in data set [1] (setting [4]), the exposure (AUC) stood at 105800 ng·h/mL, the “AUC Inf” value was 307300 ng·h/mL and the Cmax was 30600 ng/mL. In addition, the drug absorbed entry in data set [1] (suppository with MBK as the excipient, within eight hours) is “over 36.3%”. In addition, the “passage of drug through the artificial cell membrane” value in data set [2] was “no drug was found to have passed through the artificial cell membrane”.
Turning to `O=C(O)CN(CCN(CC(=O)O)CC(=O)O)CC(=O)O` [EDTA], the absorption in data set [3] is recorded as ~13%.
